The record followed here is patent EP0174162A2, “Pharmaceutically active dipeptide derivatives” (THE WELLCOME FOUNDATION LIMITED, priority 1984, dated 1986).

The IC50 is the concentration that inhibits the measured activity by half.

Structures are written as SMILES.

The target in one test is T1, ACE (Rattus norvegicus, UniProt P47820).
T1 construct: in pithed rats; from tissue; host or cells: whole animal (pithed rat)
T1 sequence (P47820 36-1313): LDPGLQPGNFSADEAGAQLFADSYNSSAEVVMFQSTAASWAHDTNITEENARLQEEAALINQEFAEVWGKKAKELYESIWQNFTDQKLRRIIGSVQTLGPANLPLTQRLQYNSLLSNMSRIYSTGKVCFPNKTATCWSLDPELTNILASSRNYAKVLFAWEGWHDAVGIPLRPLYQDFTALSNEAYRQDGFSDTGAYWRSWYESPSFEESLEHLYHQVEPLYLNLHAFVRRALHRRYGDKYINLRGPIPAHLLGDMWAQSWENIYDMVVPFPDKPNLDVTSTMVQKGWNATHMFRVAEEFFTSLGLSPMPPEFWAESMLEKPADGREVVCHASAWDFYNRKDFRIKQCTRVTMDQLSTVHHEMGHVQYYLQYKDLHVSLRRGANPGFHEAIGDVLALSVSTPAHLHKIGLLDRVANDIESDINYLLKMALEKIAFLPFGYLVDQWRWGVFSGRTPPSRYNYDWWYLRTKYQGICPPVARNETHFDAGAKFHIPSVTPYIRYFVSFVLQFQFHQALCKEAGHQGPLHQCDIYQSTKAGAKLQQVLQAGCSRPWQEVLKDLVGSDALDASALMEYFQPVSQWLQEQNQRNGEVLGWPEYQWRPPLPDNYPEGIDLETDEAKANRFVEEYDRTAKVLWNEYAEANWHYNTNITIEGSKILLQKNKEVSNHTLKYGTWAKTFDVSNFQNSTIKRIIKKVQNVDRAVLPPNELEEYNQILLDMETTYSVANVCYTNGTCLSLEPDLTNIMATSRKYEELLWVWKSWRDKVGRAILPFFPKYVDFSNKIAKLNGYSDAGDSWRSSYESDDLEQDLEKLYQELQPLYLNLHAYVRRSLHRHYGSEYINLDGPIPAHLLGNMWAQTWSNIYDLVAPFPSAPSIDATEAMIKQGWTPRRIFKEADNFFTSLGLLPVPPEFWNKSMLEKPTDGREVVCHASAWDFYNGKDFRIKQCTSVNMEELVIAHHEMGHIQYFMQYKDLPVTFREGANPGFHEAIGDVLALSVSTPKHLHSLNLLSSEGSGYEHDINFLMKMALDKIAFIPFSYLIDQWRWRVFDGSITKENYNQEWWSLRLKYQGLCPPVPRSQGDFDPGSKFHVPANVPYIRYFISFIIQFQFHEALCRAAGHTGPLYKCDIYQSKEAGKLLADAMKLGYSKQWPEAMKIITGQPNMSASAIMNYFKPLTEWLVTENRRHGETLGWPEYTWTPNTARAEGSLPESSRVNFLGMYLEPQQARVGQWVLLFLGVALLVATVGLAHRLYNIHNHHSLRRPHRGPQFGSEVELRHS
Put plainly: ACE inhibition in vivo: angiotensin I induced pressor responses in pithed rats. The settings on record: doses 1-100 µgkg^-1min displaced angiotensin I dose response curves rightwards. Here is the method:
Doses 1-100 µgkg^-1min effectively displaced in a rightwards fashion, angiotensin I dose response curves.

The subject of test [1] is uninephrectomised, contralateral renal stenotic conscious beagle dogs. Nature of the test: Antihypertensive activity in uninephrectomised, contralateral renal stenotic conscious beagle dogs. The format is in vivo. As to conditions: doses in the range 1-3 mgkg^-1 intravenously.
The test system of test [2] is salt depleted conscious beagle dogs. Nature of the test: Antihypertensive activity in salt depleted conscious beagle dogs. The format is in vivo. The settings on record: intravenous administration, doses in the range 1-3 mgkg^-1.
Test [3] concerns isoprenaline induced tachycardia. Nature of the test: Effect on heart rate: isoprenaline induced tachycardia in pithed rats. The class given is in vivo. The settings on record: doses 10-100 µgkg^-1min^-1 displaced isoprenaline dose response curves rightwards. As for the experimental part: Doses 10-100 µgkg^-1min^-1 effectively displaced in a rightwards fashion, isoprenaline dose response curves.

In the next test the target is isolated enzyme (Homo sapiens, UniProt P12821). Put plainly: ACE inhibition on isolated enzyme. The settings on record: read-out: apparent IC50 on isolated enzyme. The format is biochemical.
Sequence of isolated enzyme (P12821 30-1306): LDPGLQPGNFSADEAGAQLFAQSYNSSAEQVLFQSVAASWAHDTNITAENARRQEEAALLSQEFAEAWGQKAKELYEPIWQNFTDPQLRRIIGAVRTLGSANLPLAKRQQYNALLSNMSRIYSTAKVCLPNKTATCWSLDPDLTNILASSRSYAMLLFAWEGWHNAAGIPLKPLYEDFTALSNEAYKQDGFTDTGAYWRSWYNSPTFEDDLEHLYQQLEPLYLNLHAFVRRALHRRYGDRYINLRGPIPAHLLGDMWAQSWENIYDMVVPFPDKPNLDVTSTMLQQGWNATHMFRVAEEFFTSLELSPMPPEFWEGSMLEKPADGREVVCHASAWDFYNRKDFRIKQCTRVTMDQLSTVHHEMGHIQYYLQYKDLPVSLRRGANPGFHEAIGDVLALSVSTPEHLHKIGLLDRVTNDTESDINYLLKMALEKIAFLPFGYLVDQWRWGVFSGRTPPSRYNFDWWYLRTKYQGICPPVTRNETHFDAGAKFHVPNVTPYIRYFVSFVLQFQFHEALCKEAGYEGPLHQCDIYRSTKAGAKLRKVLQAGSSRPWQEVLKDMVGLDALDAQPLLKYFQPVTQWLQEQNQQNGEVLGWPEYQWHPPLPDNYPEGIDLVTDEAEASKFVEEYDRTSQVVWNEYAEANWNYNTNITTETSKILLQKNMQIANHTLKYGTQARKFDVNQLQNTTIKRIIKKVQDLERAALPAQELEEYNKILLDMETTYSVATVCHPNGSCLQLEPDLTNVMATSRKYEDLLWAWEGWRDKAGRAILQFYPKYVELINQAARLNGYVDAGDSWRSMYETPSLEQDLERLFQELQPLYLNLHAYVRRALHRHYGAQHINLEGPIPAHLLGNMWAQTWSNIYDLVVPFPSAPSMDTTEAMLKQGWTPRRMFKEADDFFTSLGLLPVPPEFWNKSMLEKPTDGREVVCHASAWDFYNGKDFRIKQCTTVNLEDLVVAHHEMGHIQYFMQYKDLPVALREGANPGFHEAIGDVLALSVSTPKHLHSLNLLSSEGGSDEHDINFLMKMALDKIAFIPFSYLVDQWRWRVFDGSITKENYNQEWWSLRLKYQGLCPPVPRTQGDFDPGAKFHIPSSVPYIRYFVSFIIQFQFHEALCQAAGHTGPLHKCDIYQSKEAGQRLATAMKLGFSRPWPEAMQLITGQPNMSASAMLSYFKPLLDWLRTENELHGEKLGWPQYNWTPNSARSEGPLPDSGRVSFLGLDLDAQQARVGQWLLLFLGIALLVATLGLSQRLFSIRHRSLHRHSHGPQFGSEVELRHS

Take `CC(C)NCC(O)COc1cccc2[nH]c(C(=O)NCCCC[C@H](NC(C)C(=O)N3CCC[C@H]3C(=O)O)C(=O)O)cc12` (some centres unmarked) [Example 1]: the “inhibition of angiotensin I induced pressor responses” value at ACE is recorded as “inhibit in a dose dependent fashion”. Also, the hypotensive activity entry in test [1] is reported as “marked hypotensive activity”. Also, the blood pressure entry in test [2] is “reduce blood pressure”. The “inhibition of isoprenaline induced tachycardia” value in test [3] is listed as “inhibit in a dose dependent fashion”. The IC50 at isolated enzyme turned out to be 11 nM.
